Measured values taken from patent publication US20060090219A1, “Methods for producing plants with improved growth under nitrogen-limited conditions” (priority 2003, published 2006).

How the values were obtained:
[1] = test system: potatoes (May Queen cultivar); assay: Yield survey of potatoes after foliar application of proline under low-nitrogen conditions; format: in vivo, potato; details: for Total tuber weight (per plant) / Total number of tubers (per plant): foliar spray 6 times at one-week intervals, harvest 3 months after planting, n = 6; for Total tuber weight (per plant): low-nitrogen soil (total nitrogen 0.6 g); for Total number of tubers (per plant): low-nitrogen soil; for Ratio of total number of tubers to spreader group / Ratio of total tuber weight to spreader group: same test, spreader group = 1.00
Method: The effects of foliar application of a proline solution on growth and yield were investigating using potatoes (May Queen cultivar). Potato tubers were placed in No. 7 pots containing 1.5 kg of Power Soil (Kureha Chemical). Under normal cultivation conditions, about 5 g of nitrogen fertilizer is used as base fertilizer; while in this cultivation test, cultivation was under low-nitrogen conditions.
(§1) Three foliar application groups were prepared—a spreader group (Approach B1, Kao), a urea group (spreader+0.87 mM urea), and a proline group (spreader+1.75 mM proline), and about 20 ml per plant was sprayed once a week beginning about a month after planting (immediately before flowering). The leaves were sprayed 6 times (6 weeks), and harvested 3 months after planting.
Aqueous solutions of a spreader, urea and proline were applied 6 times at one-week intervals to the leaf surfaces of potato plants 1 month after planting. These were cultivated for 3 months after planting, with 6 pots in each group and one stalk per plant. The tubers were harvested from each pot, and the tuber weight and number of tubers per pot was measured.

potato leaf tissue = details: 24 hours after foliar application, compared with spreader and urea groups, n=6
Method: as §1

| Structure (SMILES) | Total tuber weight (per plant) [1] | Total tuber weight (per plant) ([1]; listed as proline) | Total number of tubers (per plant) [1] | Total number of tubers (per plant) ([1]; listed as proline) | Ratio of total number of tubers to spreader group [1] | Ratio of total tuber weight to spreader group [1] | Ratio of total tuber weight to spreader group ([1]; listed as proline) | 2-OG content in leaf tissue (potato leaf tissue) | Total tuber weight (per plant) ([1]; listed as urea) | Total number of tubers (per plant) ([1]; listed as urea) |
| --- | --- | --- | --- | --- | --- | --- | --- | --- | --- | --- |
| O=C(O)[C@@H]1CCCN1 [Proline, proline] | 158.4 ± 18.0 g | 158.4 g | 8.2 ± 1.0 | 8.2 | 1.00 | 1.10 | 1.1 | significantly greater |  |  |
| NC(N)=O [Urea, urea, reference compound] | 140.1 ± 10.6 g |  | 6.8 ± 1.6 |  | 0.83 | 0.96 |  |  | 140.1 g | 6.8 |
